Earlier results as cited in US8501717B2, “Methods to treat and/or prevent mucositis” (Merck, Sharp & Dohme Corp., priority 2007, dated 2013).

Conditions: less than the effect of an equal dose of calcitriol

C=C1/C(=C\C=C2/CCC[C@]3(C)C([C@H](C)CC#CC(C)(C)O)=CC[C@@H]23)C[C@@H](O)C[C@@H]1O [Ro23-7553]
hypercalcemic effect compared to calcitriol (in words): reduced hypercalcemic effect
